Results taken from ChEMBL document CHEMBL1201862, “PubChem BioAssay data set” (2004).
Blank lines part the entries; values can stand above or below the molecule they belong to. Active and inactive are the calls of the source.

Assays:
[1] = test system: INS1; assay: INS-1E survival protection against cytokine death – cell-based, luminescence, retest, dose response (AID 449756); format: functional; conditions: Rattus norvegicus;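 further: cell death triggered by IL-1 beta plus TNF-alpha plus IFN-gamma mixture; protective hits raise ATP signal compared with cytokine alone wells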
[2] = target: Photoreceptor-specific nuclear receptor (Homo sapiens, UniProt Q9Y5X4); format: functional, cell-based;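 further: CHO-S cells with Gal4-NCOR and VP16-NR2E3 two-hybrid luciferase reporter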
Photoreceptor-specific nuclear receptor, sequence (Q9Y5X4 whole entry, the tested form may be a part): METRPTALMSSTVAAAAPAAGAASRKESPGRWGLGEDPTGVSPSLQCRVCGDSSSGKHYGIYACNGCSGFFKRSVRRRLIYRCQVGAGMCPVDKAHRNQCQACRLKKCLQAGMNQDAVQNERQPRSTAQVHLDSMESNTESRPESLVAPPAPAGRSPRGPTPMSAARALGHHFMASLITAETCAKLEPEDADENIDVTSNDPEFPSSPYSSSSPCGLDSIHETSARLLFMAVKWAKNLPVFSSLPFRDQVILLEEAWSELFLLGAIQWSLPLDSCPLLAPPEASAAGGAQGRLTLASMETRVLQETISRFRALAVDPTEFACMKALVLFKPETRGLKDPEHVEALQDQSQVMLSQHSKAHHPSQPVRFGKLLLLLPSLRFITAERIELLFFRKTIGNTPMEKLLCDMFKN

[3] = Trypanosoma cruzi growth suppression in host cells – NIH3T3 host cells, beta-gal luminescence, confirmation (AID 2044); format: functional, cell-based;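 further: intracellular parasites grown in NIH/3T3 mouse fibroblasts as host cells; luminescent beta-galactosidase reporter signal from transgenic T. cruzi replicating inside host cells; inhibitors lower the luminescence signal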
[4] = NIH3T3 cell viability loss – ATP luminescence, mouse fibroblasts, counter-screen, dose response (AID 2010); format: functional, cell-based; conditions: NIH3T3;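 further: cells exposed to compound for about 90 hours before reading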
[5] = target: T1, Corticotropin-releasing factor receptor 2/Corticotropin-releasing factor-binding protein (Homo sapiens, UniProt P24387+Q13324); assay: Dose Response confirmation of uHTS hits for small molecule antagonists of the CRF-binding protein and CRF-R2 receptor complex.; format: functional; conditions: read-out: IC50_Mean
T1 sequence (Q13324 whole entry): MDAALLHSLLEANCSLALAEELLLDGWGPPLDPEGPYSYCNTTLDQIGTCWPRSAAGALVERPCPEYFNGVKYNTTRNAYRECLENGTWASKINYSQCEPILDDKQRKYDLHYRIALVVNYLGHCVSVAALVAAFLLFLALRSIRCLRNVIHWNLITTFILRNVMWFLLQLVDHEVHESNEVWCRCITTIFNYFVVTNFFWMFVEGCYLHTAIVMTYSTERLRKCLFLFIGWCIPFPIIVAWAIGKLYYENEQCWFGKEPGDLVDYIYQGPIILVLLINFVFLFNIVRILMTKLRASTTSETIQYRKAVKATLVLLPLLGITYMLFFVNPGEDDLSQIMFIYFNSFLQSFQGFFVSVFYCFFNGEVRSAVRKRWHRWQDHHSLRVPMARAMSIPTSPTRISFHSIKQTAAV
T1 sequence (P24387 whole entry): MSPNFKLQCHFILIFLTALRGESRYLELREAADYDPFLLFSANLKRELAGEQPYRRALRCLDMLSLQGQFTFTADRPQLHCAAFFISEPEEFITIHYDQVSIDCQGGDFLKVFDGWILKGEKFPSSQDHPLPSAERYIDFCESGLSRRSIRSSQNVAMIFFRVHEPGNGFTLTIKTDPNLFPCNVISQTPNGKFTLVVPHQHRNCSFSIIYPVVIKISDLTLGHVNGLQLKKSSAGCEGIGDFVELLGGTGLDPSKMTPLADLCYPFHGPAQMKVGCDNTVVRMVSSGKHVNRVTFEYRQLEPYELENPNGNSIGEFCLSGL

[6] = target: T1, Corticotropin-releasing factor receptor 2/Corticotropin-releasing factor-binding protein; assay: activators of CRF receptor 2 with binding protein – uHTS hits, confirmation (AID 602473); format: functional; conditions: read-out: EC50_Mean
[7] = blockers of CRF-binding protein–CRF-R2 complex – cell-based, uHTS hits, 384-well, dose response (AID 651639); format: functional, Homo sapiens; conditions: read-out: IC50_Mean
[8] = target: T2, DNA repair and recombination protein RAD54-like (Homo sapiens, UniProt Q92698); assay: RAD54 Holliday junction migration blockers – biochemical, fluorescence, cherry-picked samples, dose series, confirmation (AID 651657); format: functional
T2 sequence (Q92698 whole entry): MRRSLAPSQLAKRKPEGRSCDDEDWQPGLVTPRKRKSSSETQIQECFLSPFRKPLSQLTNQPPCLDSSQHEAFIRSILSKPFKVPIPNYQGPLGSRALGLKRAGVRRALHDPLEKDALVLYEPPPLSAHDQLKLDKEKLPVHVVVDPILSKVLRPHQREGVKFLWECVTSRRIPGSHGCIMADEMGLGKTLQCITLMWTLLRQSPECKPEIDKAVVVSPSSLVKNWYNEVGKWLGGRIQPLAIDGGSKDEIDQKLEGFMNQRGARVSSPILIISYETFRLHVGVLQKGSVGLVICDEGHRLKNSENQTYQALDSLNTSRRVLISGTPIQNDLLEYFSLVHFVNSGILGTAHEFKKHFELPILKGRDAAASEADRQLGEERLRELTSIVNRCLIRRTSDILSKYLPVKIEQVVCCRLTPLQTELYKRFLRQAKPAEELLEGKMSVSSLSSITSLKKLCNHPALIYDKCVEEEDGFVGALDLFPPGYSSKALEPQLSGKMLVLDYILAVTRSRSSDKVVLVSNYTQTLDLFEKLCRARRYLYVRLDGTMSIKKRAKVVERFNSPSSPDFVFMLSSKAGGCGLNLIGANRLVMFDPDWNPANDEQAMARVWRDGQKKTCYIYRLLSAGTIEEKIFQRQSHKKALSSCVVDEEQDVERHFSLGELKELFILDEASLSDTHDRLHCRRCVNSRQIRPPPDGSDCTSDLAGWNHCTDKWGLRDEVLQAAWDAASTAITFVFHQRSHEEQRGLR

[9] = target: T3, DNA repair protein RAD52 homolog (Homo sapiens, UniProt P43351); format: functional, biochemical
T3 sequence (P43351 whole entry): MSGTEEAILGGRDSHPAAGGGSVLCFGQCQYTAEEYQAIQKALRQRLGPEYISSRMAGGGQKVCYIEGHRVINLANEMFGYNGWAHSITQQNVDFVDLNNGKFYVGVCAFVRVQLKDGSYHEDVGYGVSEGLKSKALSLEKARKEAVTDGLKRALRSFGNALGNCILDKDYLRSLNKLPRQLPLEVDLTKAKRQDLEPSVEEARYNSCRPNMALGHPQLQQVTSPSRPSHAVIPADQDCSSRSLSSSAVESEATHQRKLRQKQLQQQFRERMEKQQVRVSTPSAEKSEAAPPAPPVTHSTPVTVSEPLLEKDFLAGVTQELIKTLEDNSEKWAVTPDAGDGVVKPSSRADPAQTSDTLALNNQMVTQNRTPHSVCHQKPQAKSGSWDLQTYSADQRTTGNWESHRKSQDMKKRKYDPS

[10] = activation of miR-122 Renilla sensor silencing – cell-based, Huh7 psiCHECK-miR122, Renilla luciferase, cherry-picked, dose response (AID 651956); format: functional;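 further: huh7 hepatoma cells stably carrying a psiCHECK-2 miR-122 sensor plasmid; renilla luciferase signal reporting endogenous miR-122 activity after 48 h compound exposure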
[11] = target: T4, Aminopeptidase N (Plasmodium falciparum FcB1/Columbia, UniProt O96935); assay: malaria alanyl aminopeptidase activity blockers – biochemical, fluorogenic H-Leu-NHMec substrate, 1536-well (AID 1445); parameters: species or system Plasmodium falciparum 3D7, 3D7
T4 sequence (O96935 whole entry): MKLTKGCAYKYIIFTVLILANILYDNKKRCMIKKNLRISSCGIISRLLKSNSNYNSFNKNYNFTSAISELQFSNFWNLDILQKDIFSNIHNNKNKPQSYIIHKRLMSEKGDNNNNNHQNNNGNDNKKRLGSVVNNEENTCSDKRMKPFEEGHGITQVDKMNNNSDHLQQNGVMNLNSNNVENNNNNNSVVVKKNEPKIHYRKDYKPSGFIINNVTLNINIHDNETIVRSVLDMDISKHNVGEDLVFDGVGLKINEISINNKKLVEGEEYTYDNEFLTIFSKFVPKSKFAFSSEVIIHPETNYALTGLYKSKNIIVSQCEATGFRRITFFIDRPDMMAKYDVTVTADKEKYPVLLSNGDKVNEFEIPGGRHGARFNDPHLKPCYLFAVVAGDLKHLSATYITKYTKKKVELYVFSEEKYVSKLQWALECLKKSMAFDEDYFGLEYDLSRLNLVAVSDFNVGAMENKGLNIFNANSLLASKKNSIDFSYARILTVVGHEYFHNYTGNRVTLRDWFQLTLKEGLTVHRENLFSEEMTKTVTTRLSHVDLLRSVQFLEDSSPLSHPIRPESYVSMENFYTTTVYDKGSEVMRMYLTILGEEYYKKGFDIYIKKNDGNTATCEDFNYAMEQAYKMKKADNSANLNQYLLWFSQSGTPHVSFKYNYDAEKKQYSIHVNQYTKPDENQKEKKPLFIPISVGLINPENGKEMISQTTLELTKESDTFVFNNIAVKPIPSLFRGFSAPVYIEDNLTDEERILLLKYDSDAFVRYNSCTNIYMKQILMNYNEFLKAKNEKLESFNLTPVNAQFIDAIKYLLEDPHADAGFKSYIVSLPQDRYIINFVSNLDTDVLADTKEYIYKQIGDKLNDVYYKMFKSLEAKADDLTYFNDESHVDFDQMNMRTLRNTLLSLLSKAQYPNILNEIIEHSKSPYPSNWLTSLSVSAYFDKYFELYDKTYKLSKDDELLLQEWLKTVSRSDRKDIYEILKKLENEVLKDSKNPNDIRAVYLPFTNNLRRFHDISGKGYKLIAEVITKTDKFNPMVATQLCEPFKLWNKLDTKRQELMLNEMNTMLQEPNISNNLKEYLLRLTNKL

[12] = target: Genome polyprotein (dengue virus type 2, UniProt P29990); assay: flavivirus cap methylation enzyme inhibition – biochemical, confirmation dose response, primary screen (AID 588689); format: functional
Genome polyprotein, sequence (P29990 2492-3391 limits assumed): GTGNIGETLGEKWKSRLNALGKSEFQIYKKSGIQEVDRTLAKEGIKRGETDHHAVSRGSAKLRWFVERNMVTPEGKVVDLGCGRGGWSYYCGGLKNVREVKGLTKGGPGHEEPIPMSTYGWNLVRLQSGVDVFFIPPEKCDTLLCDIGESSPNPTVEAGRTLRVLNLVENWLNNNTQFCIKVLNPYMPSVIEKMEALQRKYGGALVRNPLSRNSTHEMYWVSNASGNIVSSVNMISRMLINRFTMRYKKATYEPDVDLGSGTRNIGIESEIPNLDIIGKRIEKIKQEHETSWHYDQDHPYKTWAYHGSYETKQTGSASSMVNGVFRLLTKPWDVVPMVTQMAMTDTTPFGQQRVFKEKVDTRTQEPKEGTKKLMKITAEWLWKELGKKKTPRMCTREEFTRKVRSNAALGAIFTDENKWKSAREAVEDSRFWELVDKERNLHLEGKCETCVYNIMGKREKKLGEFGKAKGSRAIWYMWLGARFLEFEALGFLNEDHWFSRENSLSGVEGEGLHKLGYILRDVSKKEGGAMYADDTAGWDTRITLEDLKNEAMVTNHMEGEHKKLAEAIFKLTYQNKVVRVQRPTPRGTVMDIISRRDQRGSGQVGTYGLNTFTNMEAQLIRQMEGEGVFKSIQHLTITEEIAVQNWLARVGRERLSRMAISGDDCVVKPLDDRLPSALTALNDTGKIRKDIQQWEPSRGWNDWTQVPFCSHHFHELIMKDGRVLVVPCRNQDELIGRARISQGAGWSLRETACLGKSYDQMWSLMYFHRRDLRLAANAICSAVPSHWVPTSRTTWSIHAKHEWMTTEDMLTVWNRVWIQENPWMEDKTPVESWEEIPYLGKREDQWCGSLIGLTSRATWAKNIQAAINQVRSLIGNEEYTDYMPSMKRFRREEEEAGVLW

Structure (SMILES): CC(Oc1ccc(Br)cc1)c1nc2c3ccccc3nc(S)n2n1 (stereo not given)
AC50 [1]: 7.23 µM (active)
IC50 [2]: 3.74 µM (active)

Structure (SMILES): Cc1ccc(S(=O)(=O)c2nnn3c2nc(N2CCCCC2)c2ccccc23)cc1
EC50 [3]: 1.14 µM (active)
EC50 [4]: > 60 µM (inconclusive)
IC50 [5]: 2.96 µM (active)
EC50 [6]: > 53 µM (inactive)
IC50 [7]: 10 µM (active)

Structure (SMILES): CCOC(=O)c1cnc2c(C)cc(C)cc2c1NCCCN1CCOCC1
AC50 [8]: 5.48 µM (active)
AC50 [9]: 11.4 µM (active)

Structure (SMILES): COc1ccc(N2CCN(C(=O)CSc3nnc(CNc4ccccc4)o3)CC2)cc1
AC50 [10]: 44.3 µM (active)

Structure (SMILES): Cc1nn(C)cc1NC(=O)C[C@@H]1CC[C@@H]2[C@@H](COc3ccc(NC(=O)Nc4cccc(Cl)c4)cc3C(=O)N2C)O1
AC50 [10]: 22.8 µM (active)

Other lines, results leading:

IC50 [5]: 5.69 µM (active)
EC50 [6]: > 53 µM (inactive)
IC50 [7]: > 20 µM (inactive)
Structure (SMILES): COc1ccc(C(C(=O)NC2CCCC2)N(C(=O)c2ccoc2C)c2cc(C)cc(C)c2)cc1 (stereo not given)

IC50 [11]: 34.2 µM (active)
IC50 [12]: 58.3 µM (active)
IC50 [5]: 6.18 µM (active)
EC50 [6]: > 53 µM (inactive)
IC50 [7]: > 20 µM (inactive)
Structure (SMILES): CCOc1ccc(/C=C2\SC(=S)N(NS(=O)(=O)c3ccc(C)cc3)C2=O)cc1OC

IC50 [2]: 3.8 µM (active)
Structure (SMILES): O=C(C1CCC(CNS(=O)(=O)c2cccc3nsnc23)CC1)N1CC=C(c2ccccc2)CC1 (stereo not given)

IC50 [5]: 23.2 µM (active)
EC50 [6]: > 53 µM (inactive)
IC50 [7]: 13.8 µM (active)
Structure (SMILES): Cc1ccccc1NC(=O)Cc1nc(COC(=O)c2cc([N+](=O)[O-])ccc2NCCO)cs1

AC50 [8]: 17.7 µM (active)
AC50 [9]: 3.96 µM (active)
Structure (SMILES): CN(C)CCNC(=O)c1cccc(-c2cnc3c(NC=O)cc(-c4ccc(F)cc4)cn23)c1
